Data reported in PubChem BioAssay AID1671358.

Target: Serine/threonine-protein kinase PLK3 (Homo sapiens) (UniProt Q9H4B4)
Assay: PLK3 kinase inhibitors, dose response, biochemical, Z'-LYTE FRET, direct format, human (AID 1671358)
Details: Z'-LYTE FRET kinase assay, PLK3 phosphorylation

Chain of Serine/threonine-protein kinase PLK3 (Homo sapiens) (Q9H4B4 whole entry, looked up): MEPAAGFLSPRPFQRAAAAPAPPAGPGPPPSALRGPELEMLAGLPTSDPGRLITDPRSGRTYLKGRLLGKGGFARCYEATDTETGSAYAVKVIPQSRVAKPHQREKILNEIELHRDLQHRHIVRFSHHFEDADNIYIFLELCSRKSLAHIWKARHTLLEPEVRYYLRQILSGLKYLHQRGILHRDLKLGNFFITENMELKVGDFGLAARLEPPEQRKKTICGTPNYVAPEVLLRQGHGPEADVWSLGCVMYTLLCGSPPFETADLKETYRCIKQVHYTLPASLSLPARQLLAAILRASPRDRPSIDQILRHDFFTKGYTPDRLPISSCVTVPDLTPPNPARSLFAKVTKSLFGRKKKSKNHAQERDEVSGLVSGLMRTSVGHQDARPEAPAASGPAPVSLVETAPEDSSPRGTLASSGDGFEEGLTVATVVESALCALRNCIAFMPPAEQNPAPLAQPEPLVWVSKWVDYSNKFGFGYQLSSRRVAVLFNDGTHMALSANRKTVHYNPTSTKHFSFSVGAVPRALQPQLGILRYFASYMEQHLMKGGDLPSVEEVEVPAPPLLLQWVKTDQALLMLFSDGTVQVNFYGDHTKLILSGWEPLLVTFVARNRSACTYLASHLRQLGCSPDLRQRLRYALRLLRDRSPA

Structure (SMILES): Brc1c(Br)c(Br)c2n[nH]nc2c1Br
- IC50: 1850 nM
